Source: ChEMBL document CHEMBL1201862, “PubChem BioAssay data set” (2004)
The source made the active and inactive calls.

What was measured:
Mu-type opioid receptor = Mu-type opioid receptor (Homo sapiens, UniProt P35372); assay type: functional, cell-based;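 note: U2OS cells with beta-arrestin recruitment to OPRM1 by beta-gal complementation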
[1] = molecular target: 5-hydroxytryptamine receptor 2A (Mus musculus, UniProt P35363); assay type: functional, cell-based;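 note: CHO-K1 cells with tagged receptor and beta-arrestin; agonist potency measured as compound-induced activation of the receptor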
[2] = HEK293T cell cytotoxicity, dose response, cytotoxicity control for HIV Vif inhibitor project, cherry-picks (AID 652208); assay type: functional, cell-based
HEK293 [3] = assay: optical interference in Abeta FP readout, dose response, artefact control for IDE activator project, biochemical, fluorescence polarization (AID 588442); assay type: functional, cell-based; details: Homo sapiens
Insulin-degrading enzyme [4] = molecular target: T1, Insulin-degrading enzyme (Homo sapiens, UniProt P14735); assay: activators of endogenous IDE in HEK cells, dose response, cell-based, fluorescence polarization (AID 588439); assay type: functional
T1 sequence (P14735 whole entry): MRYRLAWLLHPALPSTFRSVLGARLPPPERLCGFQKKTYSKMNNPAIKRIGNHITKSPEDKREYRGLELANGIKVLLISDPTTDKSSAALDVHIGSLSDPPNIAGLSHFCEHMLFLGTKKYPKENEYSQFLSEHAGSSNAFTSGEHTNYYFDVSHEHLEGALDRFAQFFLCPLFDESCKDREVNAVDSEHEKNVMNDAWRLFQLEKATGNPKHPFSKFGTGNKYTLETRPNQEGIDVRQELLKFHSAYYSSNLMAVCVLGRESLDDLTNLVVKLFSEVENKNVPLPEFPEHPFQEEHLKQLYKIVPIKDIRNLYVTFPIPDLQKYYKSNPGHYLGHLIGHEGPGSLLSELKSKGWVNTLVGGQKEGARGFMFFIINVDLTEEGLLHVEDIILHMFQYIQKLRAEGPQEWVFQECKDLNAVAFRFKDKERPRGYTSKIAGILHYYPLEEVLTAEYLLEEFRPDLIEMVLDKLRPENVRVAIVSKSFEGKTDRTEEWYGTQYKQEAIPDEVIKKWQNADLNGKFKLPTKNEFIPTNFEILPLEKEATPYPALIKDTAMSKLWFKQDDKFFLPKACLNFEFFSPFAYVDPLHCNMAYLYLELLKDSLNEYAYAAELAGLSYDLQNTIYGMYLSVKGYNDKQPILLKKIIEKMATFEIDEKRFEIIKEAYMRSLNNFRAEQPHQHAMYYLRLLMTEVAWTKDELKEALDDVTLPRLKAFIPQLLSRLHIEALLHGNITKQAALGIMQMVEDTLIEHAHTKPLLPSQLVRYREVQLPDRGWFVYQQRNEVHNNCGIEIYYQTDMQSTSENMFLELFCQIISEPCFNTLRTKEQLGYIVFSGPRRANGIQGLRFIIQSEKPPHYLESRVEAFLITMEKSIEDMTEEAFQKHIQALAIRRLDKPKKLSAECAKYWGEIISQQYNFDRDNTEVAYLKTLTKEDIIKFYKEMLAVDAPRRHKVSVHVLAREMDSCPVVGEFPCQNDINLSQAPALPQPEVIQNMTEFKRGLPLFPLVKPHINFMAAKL

Insulin-degrading enzyme [5] = molecular target: T1, Insulin-degrading enzyme; assay: activators of recombinant IDE enzyme, dose response, counter-screen for IDE activator project, biochemical, fluorescence polarization (AID 588681)
A-375 = assay: MITF: Counter assay: A375 proliferation Measured in Cell-Based System Using Plate Reader - 2084-03_Inhibitor_Dose_DryPowder_Activity. [Related pubchem assays (depositor defined):AID488944]; assay type: functional; details: Homo sapiens
HEK293 [6] = assay: HEK cell cytotoxicity by LDH release, dose response, cytotoxicity control for IDE activator project, fluorescence, HEK cells (AID 588440); assay type: functional, cell-based; details: Homo sapiens;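 note: cytotoxicity by LDH release measuring loss of membrane integrity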
Melanocortin receptor 4 = Melanocortin receptor 4 (Homo sapiens, UniProt P32245); assay type: functional, cell-based;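 note: Cell-based assay with luminescence read-out, confirmatory dose-response testing for agonist activity of biased ligands at MC4R; human U2OS cells with tagged receptor and beta-arrestin; potency of agonists that increase receptor coupling to beta-arrestin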
[7] = molecular target: T2, Microphthalmia-associated transcription factor (Homo sapiens, UniProt O75030); assay: TRPM1 promoter luciferase signal decrease, dose response, MITF inhibitor project, cell-based, SK-MEL-5, cherry-picked, set 3 (AID 493073); assay type: functional
T2 sequence (O75030 whole entry): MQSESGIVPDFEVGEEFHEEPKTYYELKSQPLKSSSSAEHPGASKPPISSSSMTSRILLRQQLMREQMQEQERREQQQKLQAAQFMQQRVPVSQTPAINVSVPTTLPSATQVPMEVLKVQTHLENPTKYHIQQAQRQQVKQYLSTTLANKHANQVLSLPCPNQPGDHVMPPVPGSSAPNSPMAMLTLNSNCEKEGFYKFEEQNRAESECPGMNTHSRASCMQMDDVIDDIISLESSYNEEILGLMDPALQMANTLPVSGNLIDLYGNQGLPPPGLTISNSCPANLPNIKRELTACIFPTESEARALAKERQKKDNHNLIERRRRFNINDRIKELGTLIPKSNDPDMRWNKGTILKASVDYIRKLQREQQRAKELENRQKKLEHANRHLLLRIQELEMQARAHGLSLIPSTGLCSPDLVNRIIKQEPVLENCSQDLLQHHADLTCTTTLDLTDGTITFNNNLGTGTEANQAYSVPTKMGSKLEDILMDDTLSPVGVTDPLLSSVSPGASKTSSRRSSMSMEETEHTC

[8] = inhibitors of control Renilla luciferase reporter, dose response, counter-screen for Shn3 3'UTR targeting project, Clone20-Shn3RL cells, dual-Glo, cherry-pick, set 2 (AID 720724); assay type: functional, cell-based; details: Dual-Go Shn3RL
[9] = Shn3 3'UTR reporter inhibitors, dose response, cell-based, Clone20 osteoblasts, firefly luciferase, cherry-picked (AID 624132); assay type: functional;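 note: firefly luciferase luminescence from reporter carrying the Shn3 3'UTR in osteoblasts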
[10] = reduction of Shn3 3'UTR firefly luciferase signal, dose response, Schnurri-3 inhibitor project, cell-based, Clone20 osteoblasts, cherry-pick, set 2 (AID 720490); assay type: functional;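 note: actives lower the luminescence signal as inhibitors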
cells [11] = details: A549
[12] = microbe, parasite or virus in culture; assay type: functional; details: Mycobacterium tuberculosis
cells [13] = details: HEK293
INS1 = assay: beta cell apoptosis inhibitors, cytokine rescue, dose response, luminescence, retest (AID 449756); assay type: functional, cell-based; details: Rattus norvegicus;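 note: cell death triggered by IL-1 beta plus TNF-alpha plus IFN-gamma mixture; protective hits raise ATP signal compared with cytokine alone wells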
[14] = HepG2 cell cytotoxicity, dose response, cytotoxicity control for Shn3 inhibitor project, CellTiter-Glo, cherry-picked (AID 624134); assay type: functional, cell-based
[15] = molecular target: Protein disulfide-isomerase (Homo sapiens, UniProt P07237); assay: PDI inhibitors, insulin turbidity readout, confirmation, biochemical, dry powder samples, set 2 (AID 652146)
[16] = ADAM10 inhibitors, peptide cleavage, dose response, biochemical, QFRET (AID 743254);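 note: ADAM10 enzyme with the DM2 quenched FRET peptide as substrate; EDANS fluorescence gain as the protease cuts the substrate; inhibitor potency against ADAM10 proteolytic activity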
[17] = molecular target: Disintegrin and metalloproteinase domain-containing protein 17 (Homo sapiens, UniProt P78536); assay: ADAM17 protease inhibitors, dose response, counter-screen for ADAM10 exosite inhibitor project, biochemical, quenched FRET substrate (AID 743253)
[18] = control 3'UTR Renilla luciferase suppression, dose response, counter-screen for Shn3 inhibitor project, cell-based, Clone20-Shn3RL, cherry-picked (AID 624133); assay type: functional
[19] = inhibitors of PGC1a acetylation in cells, dose response, cell-based, cherry-picked samples (AID 720514); assay type: functional;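 note: potency may reflect raised or lowered acetylation signal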
[20] = Counterscreen for activators of the function of SWI/SNF related, matrix associated, actin dependent regulator of chromatin, subfamily a, member 2 (SMARCA2, BRM): Luminescence-based cell-based high throughput dose response assay to identify non-selective compounds using the VP16 reporter assay.; assay type: functional
[21] = molecular target: T3, DNA repair protein RAD52 homolog (Homo sapiens, UniProt P43351); assay type: functional, biochemical
T3 sequence (P43351 whole entry): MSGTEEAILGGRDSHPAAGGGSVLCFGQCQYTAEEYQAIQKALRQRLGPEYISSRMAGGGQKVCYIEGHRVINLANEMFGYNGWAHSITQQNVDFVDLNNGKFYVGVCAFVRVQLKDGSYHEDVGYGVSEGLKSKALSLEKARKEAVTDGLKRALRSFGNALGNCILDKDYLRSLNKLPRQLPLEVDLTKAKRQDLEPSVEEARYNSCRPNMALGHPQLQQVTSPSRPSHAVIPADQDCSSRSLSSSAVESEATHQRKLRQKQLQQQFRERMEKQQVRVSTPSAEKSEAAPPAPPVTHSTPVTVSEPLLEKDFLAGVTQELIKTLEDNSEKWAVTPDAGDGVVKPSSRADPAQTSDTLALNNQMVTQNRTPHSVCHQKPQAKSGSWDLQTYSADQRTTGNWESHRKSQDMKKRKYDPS

[22] = molecular target: SWI/SNF-related matrix-associated actin-dependent regulator of chromatin subfamily A member 2 (Homo sapiens, UniProt P51531); assay: Luminescence-based cell-based high throughput dose response assay to identify activators of the function of SWI/SNF related, matrix associated, actin dependent regulator of chromatin, subfamily a, member 2 (SMARCA2, BRM).; assay type: functional
[23] = A549 cell cytotoxicity, dose response, cytotoxicity control, CellTiter-Glo luminescence, dry powder, set 3 (AID 743146); assay type: functional, cell-based
[24] = HEK293 cell cytotoxicity, dose response, cytotoxicity control, ATP luminescence, dry powder, Set6 (AID 743142); assay type: functional, cell-based
[25] = cytotoxicity in HeLa cells, dose response, cytotoxicity control, cell-based, 24 h, dry powder, set 2 (AID 651774); assay type: functional
Fatty acid synthase = Fatty acid synthase (Homo sapiens, UniProt P49327); assay: FAS thioesterase domain inhibitors, SAR follow-up, biochemical, endpoint fluorescence intensity, powder samples (AID 652164); assay type: functional
Aspartyl aminopeptidase = molecular target: T4, Aspartyl aminopeptidase (Plasmodium falciparum 3D7, UniProt Q8I2J3)
T4 sequence (Q8I2J3 whole entry): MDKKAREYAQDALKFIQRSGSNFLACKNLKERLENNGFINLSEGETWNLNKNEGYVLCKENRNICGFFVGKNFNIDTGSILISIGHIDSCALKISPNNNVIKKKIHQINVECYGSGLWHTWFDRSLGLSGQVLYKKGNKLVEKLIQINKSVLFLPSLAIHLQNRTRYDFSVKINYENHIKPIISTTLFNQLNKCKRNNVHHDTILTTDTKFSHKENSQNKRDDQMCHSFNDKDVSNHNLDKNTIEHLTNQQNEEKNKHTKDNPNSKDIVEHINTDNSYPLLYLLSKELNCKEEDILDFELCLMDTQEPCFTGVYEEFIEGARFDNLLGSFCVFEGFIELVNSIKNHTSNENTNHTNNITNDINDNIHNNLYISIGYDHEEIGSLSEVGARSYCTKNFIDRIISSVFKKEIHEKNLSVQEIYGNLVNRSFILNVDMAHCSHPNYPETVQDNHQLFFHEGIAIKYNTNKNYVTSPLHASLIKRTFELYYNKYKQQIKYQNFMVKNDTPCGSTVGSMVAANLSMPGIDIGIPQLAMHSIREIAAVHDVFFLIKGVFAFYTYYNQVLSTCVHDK

Procathepsin L = Procathepsin L (Homo sapiens, UniProt P07711)
Procathepsin L, sequence (P07711 whole entry): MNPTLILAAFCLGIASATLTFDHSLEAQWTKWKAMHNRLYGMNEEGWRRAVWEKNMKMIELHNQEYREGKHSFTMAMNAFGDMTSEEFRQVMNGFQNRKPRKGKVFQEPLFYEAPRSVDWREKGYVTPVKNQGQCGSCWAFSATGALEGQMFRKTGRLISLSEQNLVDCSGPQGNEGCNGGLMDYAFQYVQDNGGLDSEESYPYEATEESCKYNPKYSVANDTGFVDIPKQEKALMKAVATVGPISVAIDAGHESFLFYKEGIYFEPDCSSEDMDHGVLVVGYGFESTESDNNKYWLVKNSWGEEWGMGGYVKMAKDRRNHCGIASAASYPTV

Melanocortin receptor 4, sequence (P32245 whole entry): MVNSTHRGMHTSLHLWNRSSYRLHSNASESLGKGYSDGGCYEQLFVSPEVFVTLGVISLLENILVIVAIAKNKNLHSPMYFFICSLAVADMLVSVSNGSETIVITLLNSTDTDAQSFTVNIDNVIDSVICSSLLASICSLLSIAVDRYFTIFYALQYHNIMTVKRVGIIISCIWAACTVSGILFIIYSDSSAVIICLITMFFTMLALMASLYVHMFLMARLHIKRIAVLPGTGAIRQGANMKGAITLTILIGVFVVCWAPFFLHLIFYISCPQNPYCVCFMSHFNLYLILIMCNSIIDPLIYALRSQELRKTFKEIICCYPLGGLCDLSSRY
Fatty acid synthase, sequence (P49327 whole entry, the tested form may be a part): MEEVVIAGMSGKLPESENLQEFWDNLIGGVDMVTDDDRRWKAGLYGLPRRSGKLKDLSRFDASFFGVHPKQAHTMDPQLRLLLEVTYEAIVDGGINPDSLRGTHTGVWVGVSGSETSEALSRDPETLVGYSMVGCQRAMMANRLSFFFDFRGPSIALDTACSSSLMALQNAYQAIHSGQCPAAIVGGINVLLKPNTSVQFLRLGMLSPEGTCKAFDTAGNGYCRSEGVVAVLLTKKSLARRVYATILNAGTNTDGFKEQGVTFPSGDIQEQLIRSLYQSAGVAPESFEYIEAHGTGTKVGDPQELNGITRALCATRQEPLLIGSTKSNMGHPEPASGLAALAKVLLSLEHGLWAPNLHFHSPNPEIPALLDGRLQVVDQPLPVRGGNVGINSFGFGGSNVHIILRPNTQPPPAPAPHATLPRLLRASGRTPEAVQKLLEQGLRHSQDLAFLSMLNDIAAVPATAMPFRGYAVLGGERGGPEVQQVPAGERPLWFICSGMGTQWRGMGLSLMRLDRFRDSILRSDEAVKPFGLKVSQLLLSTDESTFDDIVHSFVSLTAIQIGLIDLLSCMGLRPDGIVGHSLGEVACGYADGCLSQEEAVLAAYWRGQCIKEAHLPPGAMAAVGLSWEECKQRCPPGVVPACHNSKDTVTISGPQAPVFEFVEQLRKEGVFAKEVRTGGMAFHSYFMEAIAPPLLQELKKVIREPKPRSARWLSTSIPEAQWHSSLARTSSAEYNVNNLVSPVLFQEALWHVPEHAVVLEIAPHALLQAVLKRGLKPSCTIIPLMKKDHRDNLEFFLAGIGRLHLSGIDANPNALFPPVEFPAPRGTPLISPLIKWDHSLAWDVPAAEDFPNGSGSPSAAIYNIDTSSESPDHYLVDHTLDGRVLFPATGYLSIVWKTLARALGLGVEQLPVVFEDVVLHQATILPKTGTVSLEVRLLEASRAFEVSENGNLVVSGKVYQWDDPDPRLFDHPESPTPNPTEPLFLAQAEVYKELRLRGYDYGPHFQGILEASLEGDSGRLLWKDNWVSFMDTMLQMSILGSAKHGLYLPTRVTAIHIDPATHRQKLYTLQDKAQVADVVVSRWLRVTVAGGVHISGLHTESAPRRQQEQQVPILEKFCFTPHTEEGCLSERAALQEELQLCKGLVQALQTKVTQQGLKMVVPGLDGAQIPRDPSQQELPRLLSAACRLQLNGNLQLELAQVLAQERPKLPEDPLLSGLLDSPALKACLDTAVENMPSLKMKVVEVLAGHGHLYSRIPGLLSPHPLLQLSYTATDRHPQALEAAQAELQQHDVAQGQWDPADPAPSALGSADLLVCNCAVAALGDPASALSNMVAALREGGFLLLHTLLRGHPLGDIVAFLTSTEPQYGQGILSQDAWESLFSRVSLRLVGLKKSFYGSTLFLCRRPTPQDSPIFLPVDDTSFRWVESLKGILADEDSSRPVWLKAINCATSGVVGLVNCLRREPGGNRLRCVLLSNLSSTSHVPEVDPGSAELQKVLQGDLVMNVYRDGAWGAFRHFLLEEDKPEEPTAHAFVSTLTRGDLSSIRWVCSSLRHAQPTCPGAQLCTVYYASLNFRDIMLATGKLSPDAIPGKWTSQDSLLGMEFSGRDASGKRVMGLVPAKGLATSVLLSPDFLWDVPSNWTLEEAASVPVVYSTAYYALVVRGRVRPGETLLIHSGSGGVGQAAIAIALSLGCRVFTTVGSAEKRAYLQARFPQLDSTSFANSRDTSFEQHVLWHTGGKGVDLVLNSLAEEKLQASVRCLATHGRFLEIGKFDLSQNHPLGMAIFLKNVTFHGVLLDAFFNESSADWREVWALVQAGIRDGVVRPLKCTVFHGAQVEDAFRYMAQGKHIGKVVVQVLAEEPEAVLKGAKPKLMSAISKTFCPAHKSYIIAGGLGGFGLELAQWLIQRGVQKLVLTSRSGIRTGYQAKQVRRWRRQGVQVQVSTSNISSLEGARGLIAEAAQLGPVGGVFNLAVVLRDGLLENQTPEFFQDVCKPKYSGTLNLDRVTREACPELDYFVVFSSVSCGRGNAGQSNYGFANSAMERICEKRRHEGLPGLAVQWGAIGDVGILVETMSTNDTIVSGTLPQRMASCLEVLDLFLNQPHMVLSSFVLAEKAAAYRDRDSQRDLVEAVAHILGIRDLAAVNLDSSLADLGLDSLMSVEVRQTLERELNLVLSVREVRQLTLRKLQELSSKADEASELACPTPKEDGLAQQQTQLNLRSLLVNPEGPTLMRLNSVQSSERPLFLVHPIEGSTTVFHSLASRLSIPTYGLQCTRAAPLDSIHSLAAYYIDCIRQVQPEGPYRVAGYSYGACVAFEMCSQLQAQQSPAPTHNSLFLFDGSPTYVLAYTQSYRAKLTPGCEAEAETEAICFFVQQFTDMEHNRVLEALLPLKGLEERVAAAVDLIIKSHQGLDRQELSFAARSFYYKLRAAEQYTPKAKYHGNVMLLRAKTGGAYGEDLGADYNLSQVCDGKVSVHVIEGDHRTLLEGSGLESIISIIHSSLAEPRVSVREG
Disintegrin and metalloproteinase domain-containing protein 17, sequence (P78536 whole entry, the tested form may be a part): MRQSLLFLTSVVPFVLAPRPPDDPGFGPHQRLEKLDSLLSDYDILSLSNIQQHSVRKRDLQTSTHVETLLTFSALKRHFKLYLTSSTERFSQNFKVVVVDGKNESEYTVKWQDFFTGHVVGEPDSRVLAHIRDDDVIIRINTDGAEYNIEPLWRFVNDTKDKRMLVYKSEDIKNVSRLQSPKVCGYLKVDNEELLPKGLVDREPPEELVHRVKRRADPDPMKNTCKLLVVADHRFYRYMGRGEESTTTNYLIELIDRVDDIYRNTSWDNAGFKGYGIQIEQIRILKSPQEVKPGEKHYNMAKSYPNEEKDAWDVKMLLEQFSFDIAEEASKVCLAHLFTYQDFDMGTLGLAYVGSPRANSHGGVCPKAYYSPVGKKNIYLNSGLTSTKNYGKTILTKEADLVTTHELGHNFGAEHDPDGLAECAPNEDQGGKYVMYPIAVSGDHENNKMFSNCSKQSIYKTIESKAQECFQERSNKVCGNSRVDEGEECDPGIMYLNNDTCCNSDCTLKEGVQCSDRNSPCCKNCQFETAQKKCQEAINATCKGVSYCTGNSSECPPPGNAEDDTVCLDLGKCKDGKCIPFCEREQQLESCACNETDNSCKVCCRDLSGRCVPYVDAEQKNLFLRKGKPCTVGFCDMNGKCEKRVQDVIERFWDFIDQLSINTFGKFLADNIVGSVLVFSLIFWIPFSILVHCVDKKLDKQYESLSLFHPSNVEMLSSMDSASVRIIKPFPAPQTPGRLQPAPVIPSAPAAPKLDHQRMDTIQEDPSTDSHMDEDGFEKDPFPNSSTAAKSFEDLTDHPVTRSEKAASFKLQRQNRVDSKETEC
Protein disulfide-isomerase, sequence (P07237 whole entry): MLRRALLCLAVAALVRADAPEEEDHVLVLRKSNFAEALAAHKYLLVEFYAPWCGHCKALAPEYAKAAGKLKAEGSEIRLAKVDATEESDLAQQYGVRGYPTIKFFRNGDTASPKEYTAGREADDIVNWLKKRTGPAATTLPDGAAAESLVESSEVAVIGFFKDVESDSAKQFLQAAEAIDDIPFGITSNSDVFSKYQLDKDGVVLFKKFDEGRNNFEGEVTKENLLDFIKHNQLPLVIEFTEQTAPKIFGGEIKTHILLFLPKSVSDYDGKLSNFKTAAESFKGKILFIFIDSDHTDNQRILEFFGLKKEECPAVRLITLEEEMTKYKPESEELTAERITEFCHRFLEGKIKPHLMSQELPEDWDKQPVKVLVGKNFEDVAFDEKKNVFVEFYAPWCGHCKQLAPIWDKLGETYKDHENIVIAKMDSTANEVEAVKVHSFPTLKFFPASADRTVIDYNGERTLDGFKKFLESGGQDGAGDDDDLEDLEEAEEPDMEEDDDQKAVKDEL
5-hydroxytryptamine receptor 2A, sequence (P35363 whole entry): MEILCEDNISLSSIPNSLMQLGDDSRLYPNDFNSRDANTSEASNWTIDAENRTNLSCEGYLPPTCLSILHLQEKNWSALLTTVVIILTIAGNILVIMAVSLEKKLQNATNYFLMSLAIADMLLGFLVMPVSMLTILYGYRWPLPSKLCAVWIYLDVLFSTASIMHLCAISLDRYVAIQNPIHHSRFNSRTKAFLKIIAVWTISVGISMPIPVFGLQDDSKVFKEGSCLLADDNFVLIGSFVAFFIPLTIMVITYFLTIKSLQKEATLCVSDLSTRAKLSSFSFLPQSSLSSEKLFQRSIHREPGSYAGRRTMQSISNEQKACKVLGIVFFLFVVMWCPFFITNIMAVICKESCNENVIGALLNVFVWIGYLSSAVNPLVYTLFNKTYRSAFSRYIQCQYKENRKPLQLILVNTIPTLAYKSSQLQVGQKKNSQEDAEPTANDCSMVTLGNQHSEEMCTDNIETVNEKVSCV

## CCOC(=O)C1=CCN(Cc2ccccc2)CC1
Mu-type opioid receptor
  EC50: 92.5 µM (inactive)
[1]
  EC50: 5.35 µM (active)

## Cc1cc(NC(=O)c2cncc(Br)c2)ccc1NC(=O)c1cc2ccccc2o1
[2]
  AC50: 15.4 µM (active)
HEK293 [3]
  EC50: > 55.9 µM (inactive)
Insulin-degrading enzyme [4]
  EC50: > 54.7 µM (inactive)
Insulin-degrading enzyme [5]
  EC50: > 54.7 µM (inactive)
A-375
  AC50: 26.2 µM (active)
HEK293 [6]
  IC50: 5.63 µM (active)
Melanocortin receptor 4
  EC50: > 89.2 µM (inactive)
[7]
  AC50: 10.4 µM (active)

## Cc1nc2scc(C)n2c(=O)c1S(=O)(=O)Nc1ccc(N2CCOCC2)c(Cl)c1
[8]
  AC50: 38.3 µM (active)
[9]
  AC50: 1.67 µM (active)
[10]
  AC50: 2.04 µM (active)

## N=c1oc2cc(O)ccc2cc1C(=O)Nc1ccc(Br)cc1
Cells [11]
  AC50: > 52 µM (inactive)
[12]
  CC50: 23.7 µM (active)
Cells [13]
  AC50: > 52 µM (inactive)

## COc1ccc(OC)c(NC(=O)CN(Cc2ccc(F)cc2)C2CCCCC2)c1
[8]
  AC50: 34.6 µM (active)
INS1
  AC50: 4.33 µM (active)
[14]
  AC50: 50.8 µM (active)
[9]
  AC50: 4.99 µM (active)
[10]
  AC50: 6.54 µM (active)

## CCOC(=O)C1(CCOc2ccccc2)CCN(Cc2ccc(OC)cc2)CC1
[15]
  AC50: > 30 µM (inactive)

## C=CCC[C@@H](Cc1ccc(F)cc1)C(=O)O[C@H](CNC(=O)[C@H](CC=C)CC(=O)N(CCO)Cc1ccccc1)c1ccccc1
[16]
  IC50: 12.2 µM (inactive)
[17]
  IC50: > 69.5 µM (inactive)

## COc1cc(NC(=O)NCc2ccco2)ccc1-c1ccc(NC(=O)NCc2ccco2)cc1OC
[2]
  AC50: > 52 µM (inactive)
[18]
  AC50: 10.3 µM (active)
[14]
  AC50: > 70 µM (inactive)
[9]
  AC50: 3.19 µM (active)
[19]
  AC50: 14 µM (active)

## CN(C)CCNC(=O)c1cccc(-c2cc(NC=O)c3ncc(-c4cccc(C(F)(F)F)c4)n3c2)c1
[20]
  EC50: > 91.2 µM (inactive)
[21]
  AC50: 4.34 µM (active)
[22]
  EC50: > 91.2 µM (inactive)
Melanocortin receptor 4
  EC50: > 89.2 µM (inactive)

## CCc1nc2ccc(C(=O)Nc3ccc(OC)c(OC)c3)cn2c1N(CC)Cc1cccc(Br)c1
[16]
  IC50: > 69.5 µM (inactive)
[17]
  IC50: > 69.5 µM (inactive)

## Cc1c(C(=O)NCc2cccc([N+](=O)[O-])c2)sc(=O)n1Cc1cccc(F)c1
Cells [11]
  AC50: 48.4 µM (active)

## CCOC(=O)C1CCN(C(=O)OC(C)(C)C)CC1
[15]
  AC50: > 30 µM (inactive)

## N#Cc1ccc(C(=O)NCCC(=O)N[C@@H]2CCCc3ccccc32)cc1
[23]
  AC50: > 52 µM (inactive)
[24]
  AC50: 17.1 µM (active)

## O=C(Cc1ccc(Cl)cc1)NC1CCCC1
[25]
  AC50: > 70 µM (inactive)

## CCC(=O)Nc1nc(-c2ccc(S(=O)(=O)N(C)C)cc2)cs1
Fatty acid synthase
  IC50: 1.08 µM (active)

## O=C(CCNC(=O)c1ccc2c(c1)OC(F)(F)O2)N[C@@H]1CCCc2ccccc21
[23]
  AC50: > 52 µM (inactive)
[24]
  AC50: 7.51 µM (active)

## CCN(CC)S(=O)(=O)c1ccc(-c2csc(NC(=O)C3CCCC3)n2)cc1
Fatty acid synthase
  IC50: 1.18 µM (active)

## CNC[C@H](O)c1ccc(O)c(O)c1 [EPINEPHRINE BITARTRATE]
Aspartyl aminopeptidase
  IC50: 3.01 µM (active)
[1]
  EC50: 0.586 µM (active)
Procathepsin L
  IC50: > 59.6 µM (not active)
